Test results reported in ChEMBL document CHEMBL5052836, “Interleukin-15 activity antagonist peptide” (2019).
Calls of active or inactive are those of the source. No cut-off for these calls is given here.

Tests used:
[1] = Inhibition of cell proliferation in IL-15-induced mouse CTLL-2 cells measured after 72 hrs by MTT assay; type: functional, cell-based; details: CTLL-2, 72 h
Synovial cell [2] = experiment: Inhibition of IL-15-induced IL-6 secretion in human synovial cells at 50 ug/ml and measured after 48 hrs by ELISA relative to control; type: functional, cell-based; details: dose 50.0 µg/ml
Homo sapiens = species: Homo sapiens; experiment: Antagonist activity at IL-15Ralpha (unknown origin) assessed as inhibition of IL-15/IL-15Ralpha complex formation at 20 ug/ml using TMB as substrate incubated for 1 hr and measured after 1 hr by ELISA relative to control; details: filed as antagonist, dose 20.0 µg/ml
Synovial cell [3] = experiment: Inhibition of IL-15-induced TNF-alpha secretion in human synovial cells at 50 ug/ml and measured after 48 hrs by ELISA relative to control; type: functional, cell-based; details: dose 50.0 µg/ml

SMILES | IC50 [1] [µM] | inhibition (Synovial cell [2]) | inhibition (Homo sapiens) [%] | inhibition (Synovial cell [3])
CSCC[C@H](NC(=O)[C@@H](C)NC(=O)[C@@H](NC(=O)[C@@H](NC(=O)[C@@H](N)CCCCN)C(C)C)[C@@H](C)O)C(=O)N[C@@H](CCCCN)C(=O)N[C@H](CS)C(=O)N[C@@H](Cc1ccccc1)C(=O)N[C@@H](CC(C)C)C(=O)N[C@@H](CC(C)C)C(=O)O | 296 | – | – | –
CSCC[C@H](NC(=O)[C@H](C)NC(=O)[C@@H](NC(=O)[C@@H](NC(=O)[C@H](N)CCCCN)C(C)C)[C@@H](C)O)C(=O)N[C@@H](CCCCN)C(=O)N[C@@H](CS)C(=O)N[C@@H](Cc1ccccc1)C(=O)N[C@@H](CC(C)C)C(=O)N[C@@H](CC(C)C)C(=O)O | 100 | – | – | –
CSCC[C@@H](NC(=O)[C@H](C)NC(=O)[C@@H](NC(=O)[C@@H](NC(=O)[C@@H](N)CCCCN)C(C)C)[C@@H](C)O)C(=O)N[C@@H](CCCCN)C(=O)N[C@@H](CS)C(=O)N[C@@H](Cc1ccccc1)C(=O)N[C@@H](CC(C)C)C(=O)N[C@@H](CC(C)C)C(=O)O | 292 | – | – | –
CSCC[C@H](NC(=O)[C@H](C)NC(=O)[C@@H](NC(=O)[C@@H](NC(=O)[C@@H](N)CCCCN)C(C)C)[C@@H](C)O)C(=O)N[C@@H](CCCCN)C(=O)N[C@H](CS)C(=O)N[C@@H](Cc1ccccc1)C(=O)N[C@@H](CC(C)C)C(=O)N[C@@H](CC(C)C)C(=O)O | 103 | – | – | –
CSCC[C@H](NC(=O)[C@@H](C)NC(=O)[C@@H](NC(=O)[C@@H](NC(=O)[C@H](N)CCCCN)C(C)C)[C@@H](C)O)C(=O)N[C@@H](CCCCN)C(=O)N[C@@H](CS)C(=O)N[C@@H](Cc1ccccc1)C(=O)N[C@@H](CC(C)C)C(=O)N[C@@H](CC(C)C)C(=O)O | 29 | Active | 89 | Active
CSCC[C@H](NC(=O)[C@H](C)NC(=O)[C@H](NC(=O)[C@@H](NC(=O)[C@@H](N)CCCCN)C(C)C)[C@H](C)O)C(=O)N[C@@H](CCCCN)C(=O)N[C@@H](CS)C(=O)N[C@@H](Cc1ccccc1)C(=O)N[C@@H](CC(C)C)C(=O)N[C@@H](CC(C)C)C(=O)O | 159 | – | – | –
CSCC[C@H](NC(=O)[C@@H](C)NC(=O)[C@@H](NC(=O)[C@@H](NC(=O)[C@H](N)CCCCN)C(C)C)[C@@H](C)O)C(=O)N[C@@H](CCCCN)C(=O)N[C@@H](CSSC[C@H](NC(=O)[C@H](CCCCN)NC(=O)[C@H](CCSC)NC(=O)[C@@H](C)NC(=O)[C@@H](NC(=O)[C@@H](NC(=O)[C@H](N)CCCCN)C(C)C)[C@@H](C)O)C(=O)N[C@@H](Cc1ccccc1)C(=O)N[C@@H](CC(C)C)C(=O)N[C@@H](CC(C)C)C(=O)O)C(=O)N[C@@H](Cc1ccccc1)C(=O)N[C@@H](CC(C)C)C(=O)N[C@@H](CC(C)C)C(=O)O | 12 | Active | 92 | Active
CSCC[C@H](NC(=O)[C@H](C)NC(=O)[C@@H](NC(=O)[C@@H](NC(=O)[C@@H](N)CCCCN)C(C)C)[C@@H](C)O)C(=O)N[C@@H](CCCCN)C(=O)N[C@@H](CS)C(=O)N[C@@H](Cc1ccccc1)C(=O)N[C@H](CC(C)C)C(=O)N[C@@H](CC(C)C)C(=O)O | 134 | – | – | –
CSCC[C@H](NC(=O)[C@@H](C)NC(=O)[C@@H](NC(=O)[C@@H](NC(=O)[C@@H](N)CCCCN)C(C)C)[C@@H](C)O)C(=O)N[C@@H](CCCCN)C(=O)N[C@@H](CSSC[C@H](NC(=O)[C@H](CCCCN)NC(=O)[C@H](CCSC)NC(=O)[C@@H](C)NC(=O)[C@@H](NC(=O)[C@@H](NC(=O)[C@@H](N)CCCCN)C(C)C)[C@@H](C)O)C(=O)N[C@@H](Cc1ccccc1)C(=O)N[C@@H](CC(C)C)C(=O)N[C@@H](CC(C)C)C(=O)O)C(=O)N[C@@H](Cc1ccccc1)C(=O)N[C@@H](CC(C)C)C(=O)N[C@@H](CC(C)C)C(=O)O | 8 | Active | 96 | Active
CSCC[C@H](NC(=O)[C@H](C)NC(=O)[C@@H](NC(=O)[C@H](NC(=O)[C@@H](N)CCCCN)C(C)C)[C@@H](C)O)C(=O)N[C@@H](CCCCN)C(=O)N[C@@H](CS)C(=O)N[C@@H](Cc1ccccc1)C(=O)N[C@@H](CC(C)C)C(=O)N[C@@H](CC(C)C)C(=O)O | 142 | – | – | –
CSCC[C@H](NC(=O)[C@H](C)NC(=O)[C@@H](NC(=O)[C@@H](NC(=O)[C@@H](N)CCCCN)C(C)C)[C@@H](C)O)C(=O)N[C@@H](CCCCN)C(=O)N[C@@H](CS)C(=O)N[C@H](Cc1ccccc1)C(=O)N[C@@H](CC(C)C)C(=O)N[C@@H](CC(C)C)C(=O)O | 118 | – | – | –
CSCC[C@H](NC(=O)[C@@H](C)NC(=O)[C@@H](NC(=O)[C@@H](NC(=O)[C@@H](N)CCCCN)C(C)C)[C@@H](C)O)C(=O)N[C@@H](CCCCN)C(=O)N[C@H](CSSC[C@@H](NC(=O)[C@H](CCCCN)NC(=O)[C@H](CCSC)NC(=O)[C@@H](C)NC(=O)[C@@H](NC(=O)[C@@H](NC(=O)[C@@H](N)CCCCN)C(C)C)[C@@H](C)O)C(=O)N[C@@H](Cc1ccccc1)C(=O)N[C@@H](CC(C)C)C(=O)N[C@@H](CC(C)C)C(=O)O)C(=O)N[C@@H](Cc1ccccc1)C(=O)N[C@@H](CC(C)C)C(=O)N[C@@H](CC(C)C)C(=O)O | 56 | – | – | –
CSCC[C@H](NC(=O)[C@H](C)NC(=O)[C@@H](NC(=O)[C@@H](NC(=O)[C@@H](N)CCCCN)C(C)C)[C@@H](C)O)C(=O)N[C@@H](CCCCN)C(=O)N[C@@H](CS)C(=O)N[C@@H](Cc1ccccc1)C(=O)N[C@@H](CC(C)C)C(=O)N[C@@H](CC(C)C)C(=O)O | 130 | – | 70 | –
CSCC[C@H](NC(=O)[C@@H](C)NC(=O)[C@@H](NC(=O)[C@@H](NC(=O)[C@@H](N)CCCCN)C(C)C)[C@@H](C)O)C(=O)N[C@@H](CCCCN)C(=O)N[C@@H](CS)C(=O)N[C@@H](Cc1ccccc1)C(=O)N[C@@H](CC(C)C)C(=O)N[C@@H](CC(C)C)C(=O)O | 28 | Active | 92 | Active
CSCC[C@H](NC(=O)[C@H](C)NC(=O)[C@@H](NC(=O)[C@@H](NC(=O)[C@@H](N)CCCCN)C(C)C)[C@@H](C)O)C(=O)N[C@H](CCCCN)C(=O)N[C@@H](CS)C(=O)N[C@@H](Cc1ccccc1)C(=O)N[C@@H](CC(C)C)C(=O)N[C@@H](CC(C)C)C(=O)O | 168 | – | – | –
CSCC[C@H](NC(=O)[C@H](C)NC(=O)[C@@H](NC(=O)[C@@H](NC(=O)[C@@H](N)CCCCN)C(C)C)[C@@H](C)O)C(=O)N[C@@H](CCCCN)C(=O)N[C@@H](CS)C(=O)N[C@@H](Cc1ccccc1)C(=O)N[C@@H](CC(C)C)C(=O)N[C@H](CC(C)C)C(=O)O | 133 | – | – | –
